# According to ChEMBL document CHEMBL5543137, “Design and Synthesis of Novel Ultralong-Acting Peptides as EDP-EBP Interaction Inhibitors for Pulmonary Fibrosis Treatment” (J Med Chem, 2024):
# Calls of active or inactive are those of the source. No cut-off for these calls is given here.
# Assays:
# [1] = system: Mus musculus; experiment: Antifibrotic activity against BLM-induced C57BL/6 mouse pulmonary fibrosis model assessed as improvement in lung condition at 30 mg/kg, po administered for 2 weeks starting from 7 days post BLM induction and measured after 21 days post BLM induction; format: functional, organism-based
# [2] = Tmax in Sprague-Dawley rat serum at 600 ug/kg, sc administered as single dose measured upto 10 days by LC-MS/MS method; format: ADME, organism-based; conditions: 0.6 mg/kg, dose 600 µg/kg, time < 10 day
# [3] = Half-life in Sprague-Dawley rat serum at 600 ug/kg, sc administered as single dose measured upto 10 days by LC-MS/MS method; format: ADME, organism-based; conditions: 0.6 mg/kg, dose 600 µg/kg, time < 10 day
# [4] = Binding affinity to EBP (unknown origin) by ITC method; set-up: species or system Homo sapiens
Compound,Activity [1],Tmax [2] [min],half-life [3] [min],Kd [4] [µM]
COC(=O)c1ccc2c(c1)NC(=O)/C2=C(\Nc1ccc(N(C)C(=O)CN2CCN(C)CC2)cc1)c1ccccc1,Active,–,–,–
H-VVGSPSAQDEASPL-NH2,–,4.98,5.88,539
